Experimental data taken from a melting point compilation (Tetko et al.; mined from patent text by program, amines drawn as free bases though some values may be those of a salt).

Row | melting point | SMILES
1 | 202 to 203 °C | CC1CCC(=NN)c2ncc(C(=O)O)c(=O)n21 (configuration not stated)
2 | 154 to 155 °C | Cc1oc(-c2ccncc2)nc1COc1ccc(Cn2cc(CCC(=O)O)c(-c3ccccc3)n2)cc1
3 | 132 to 134 °C | Cc1c(C)c2c(c(C)c1NC(=O)CC(C)(C)C)C(c1ccc(C(C)(C)O)cc1)CO2 (configuration not stated)
4 | 145 to 148 °C | CC(C)(C)OC(=O)[C@H](Cc1ccc(O)cc1)NC(=O)c1c(F)cccc1F
5 | 156 °C | COC(=O)Cc1cccc(NC(=O)NCC(=O)N2[C@@H](C(=O)N3CCCC3)C[C@H](S(=O)(=O)c3ccccc3)[C@H]2c2ccccc2F)c1 (racemic)
6 | 215 to 217 °C | O=Cc1c2ccccc2c(C=O)c2cc3ccccc3cc12
7 | 168 to 175 °C | CC1(C)Oc2ccc(C#N)cc2C(N(C(N)=O)c2ccc3c(c2)CN(Cc2ccccc2)C3)C1O (configuration not stated)
8 | 99 to 101 °C | COc1ccc2cc(C(=O)C34CC5CC(CC(C5)C3)C4)oc2c1
9 | 86 to 90 °C | COCCN1CC(C(=O)OC)N(S(=O)(=O)c2ccc(OC)cc2)Cc2ccccc21 (configuration not stated)
10 | 195 to 205 °C | O=C(Nc1ccc(N2CCS(=O)(=O)CC2)c(C(F)(F)F)c1)c1cccc2cc(Oc3cc(NC(=O)C4CC4)ncn3)ccc12
11 | 99 to 102 °C | CCOC(=O)c1ccc2c(c1)c(-c1ccccc1)nn2CCC#N
12 | 60 to 62 °C | CCCCc1oc2ccccc2c1C(O)c1ccc(-c2cc(Br)c(O)c(Br)c2)cc1 (configuration not stated)
13 | 160 to 161 °C | COc1ccc(/C(=N\O)c2cccc(NS(=O)(=O)N(C)C)c2)cc1
14 | 225 to 226 °C | COC(=O)c1ccc(-c2cc(-c3ccc(Cl)cc3)on2)cc1
15 | 134 to 135 °C | NC(=O)c1c(F)ccc([N+](=O)[O-])c1F
16 | 146 to 149 °C | CSC1CCC(=O)C(C(=O)c2ccc(S(C)(=O)=O)cc2Cl)C1=O (configuration not stated)
17 | 97 to 99 °C | CCNC(=O)C1CC(=O)N(Cc2ccccc2)C1 (configuration not stated)
18 | 153 to 155 °C | COc1ccc(CCN2CCC(C(O)(c3cccs3)c3cccs3)CC2)cc1
19 | 171 to 173 °C | COc1ccc([C@@H]2Cc3cc(OC)ccc3NC(=O)[C@@H]2O)cc1
20 | 115 to 120 °C | CCOC(=O)COc1ccc2cc(-c3oc4ccccc4c3CCC3CCCC3)ccc2c1Br
21 | 145 to 150 °C | N=C(N)c1ccc2c(c1)N(CC(=O)c1ccc(Br)cc1)C(=O)CN2
22 | 197 to 200 °C | Oc1ccc(-c2noc(C3CC3)c2-c2ccccc2)cc1
23 | 188 to 190 °C | CC(=O)N[C@@H]1c2cc(C)ccc2OC(C)(C)[C@H]1O (relative stereo)
24 | 124 to 126 °C | CN(C)CCCCC(=O)c1ccc2c(c1)Cc1cc(C(=O)CCCCN(C)C)ccc1-2
25 | 246 to 247 °C | Cc1cc(NCc2ccccc2)c([N+](=O)[O-])c(=O)[nH]1
26 | 79 to 81 °C | CC(C)(C)OC(=O)N1CCC(NCc2ccccc2N)CC1
27 | 51 °C | CCCCCC(=O)OCc1nccc(Oc2ccc3c(C(=O)OCC)csc3c2)n1
28 | 140 °C | COc1cc2c(cc1OC)CN(CCCCc1ccc(NC(=O)c3cccc4c(=O)c5cccc(C)c5[nH]c34)cc1)CC2

Row | melting point | SMILES
29 | 117 to 118 °C | O=C(O)CCc1cn(Cc2ccc(OCc3csc(-c4ccccn4)n3)cc2)cc1-c1ccccc1
30 | 146 °C | COc1ccc(Cn2nc(C3CCN(CCc4c(C)nc5n(c4=O)CCS5)CC3)c3ccc(F)cc32)cc1
31 | 167 to 168 °C | CCCn1c(=O)nc(SC)c2c1ncn2COCc1ccccc1
32 | 95 to 97 °C | COC(=O)c1cccn1Cc1ccccc1N
33 | 143 to 145 °C | CC(C)c1ccc([N+](=O)[O-])c(C(C)C)c1NC(=O)CN1CCN(CCSc2nc3ccccc3o2)CC1
34 | 115 °C | CCCCCS(=O)(=O)NC(=O)CCc1ccc(OCCCOC)cc1Oc1ncc(C(F)(F)F)cc1Cl
35 | 112 to 114 °C | CCOC(=O)c1cnn(-c2ccccn2)c1C#N
36 | 68 to 70 °C | CO/C=C(\C(=O)OC)c1ccccc1C
37 | 298 to 303 °C | CCCn1cc2c(C3C(=O)Nc4ccc(Br)cc43)nc(NCCCN3CCOCC3)nc2n1 (configuration not stated)
38 | 68 °C | COc1cccc(N(C(=O)c2ccc(-c3cccc(C)c3)s2)C2CC2)c1
39 | 179 to 181 °C | CCOc1cn(C2CC(O)C(CO)O2)c(=O)[nH]c1=O (configuration not stated)
40 | 96 °C | COc1ccc(-c2cc(CCC(=O)O)sc2-c2ccc(OC)cc2)cc1
41 | 142 to 143 °C | Cc1c(C)c2c(c(C)c1NC(=O)C(=O)C(C)(C)C)C(c1ccc(C(C)C)cc1)CO2 (configuration not stated)
42 | 184 to 186 °C | COc1cc2cc3c(Nc4ccc(Sc5nccn5C)c(Cl)c4)c(C#N)cnc3cc2cc1OCCN1CCN(C)CC1
43 | > 230 °C | CN(C)C(=O)c1ccc2c(c1)C(=NNc1ccc(S(N)(=O)=O)cc1)C(=O)N2
44 | 242 °C | O=c1[nH]c2ccc(OC3CCCC3)cc2n1C1CCCCC1
45 | 287 to 290 °C | O=C(O)c1cc2n(c1)CCc1ccccc1C2=O
46 | 160 °C | CC(=O)OC1CSC(Oc2cncc(Cl)c2)C(OC(C)=O)C1OC(C)=O (configuration not stated)
47 | 176 to 178 °C | CC1=C(c2ccc(C(=O)O)cc2)CCCC1
48 | 48 to 49 °C | CC(=O)OCCSCCOc1ccc(CCC(=O)O)cc1
49 | 200 to 202 °C | O=C(O)c1c(-c2cccc(OCC3CC3)c2)c2ccccc2n1Cc1ccc(F)cc1
50 | 146 to 147 °C | Cc1oc(-c2ccccc2)nc1C(O)COc1ccc(CCCC2OC(=O)NC2=O)cc1 (configuration not stated)
51 | 175 to 179 °C | CC(C)(C)c1cc(C(=O)Nc2nc(CC(=O)NCCN3CCN(c4ncccn4)CC3)cs2)cc(C(C)(C)C)c1O
52 | 157 to 158 °C | O=C(O)/C=C/c1ccc(OCCC2OCCO2)cc1Oc1ncc(C(F)(F)F)cc1Cl
53 | 233 to 235 °C | Cc1cc(-c2ccc(Cl)cc2)nc2c(C(=O)O)cnn12
54 | 172 °C | FC1CNC(c2ccc3c(c2)OCO3)c2[nH]c3ccccc3c21 (configuration not stated)
55 | 132 to 133 °C | CC(=O)Oc1c(C)c(C=O)nc2ccccc12

Further lines, the compound ahead of its results:

Row | SMILES | melting point
56 | N#CNc1ccc(OCc2ccccc2)cc1 | 105 °C
57 | CNC(=S)C1=CC(CF)(CF)Oc2ccc(C(F)(F)C(F)(F)F)cc21 | 148 to 149 °C
58 | Nc1nc(Cl)nc2c1ncn2COCCO | 188 to 190 °C
59 | C/C(=C\C=C(c1ccccc1)c1ccccc1)C(=O)O | 184 to 186 °C
60 | O=C(Nc1cccc(C(F)(F)F)c1)c1cccnc1NCCc1ccncc1 | 128 to 138 °C
61 | ON=C(c1ccc(O)c(Cl)c1Cl)c1cccc2ccccc12 | 145 to 160 °C
62 | CCCn1nc(C)c(C(=O)O)c1Cc1ccc(-c2ccccc2-c2nnn[nH]2)cc1 | 240 to 242 °C
63 | CCCCc1nc2c(N)nc3ccccc3c2n1CCCNS(=O)(=O)c1cccc2c(N(C)C)cccc12 | 216 to 218 °C
64 | CCOC(=O)c1cn(C2CC2)c2c(C)c(F)c(F)c([N+](=O)[O-])c2c1=O | 260 to 263 °C
65 | CSc1nc(C)c(CCN2CC=C(c3c[nH]c4ccccc34)CC2)c(=O)n1C | 245 to 246 °C
66 | Cc1ccc(C#Cc2cnc(-c3ccc(C(F)(F)F)cc3)s2)s1 | 107 to 108 °C
67 | CC(C)(C)CC(NC(=O)c1ccc(Cl)cc1)NC(=NC#N)Nc1cccnc1 (configuration not stated) | 181 to 183 °C
68 | CCCCC(CC)NC1=NS(=O)(=O)c2sc(Cl)cc2N1 (configuration not stated) | 165 to 168 °C
69 | CCC(=O)OC1C(=O)N(c2nnc(C(C)(C)C)s2)C(=O)N1C (configuration not stated) | 176 °C
70 | COC1=Nc2ccc(Cl)cc2N(c2ccccc2)C(=O)C1 | 136 to 138 °C
71 | O=C(Nc1c[nH]nc1C(=O)NCCCc1ccccc1)c1ccccn1 | 179 to 180 °C
72 | CN1CCN(c2nccnc2Cl)CC1 | 34 to 36 °C
73 | CCC(=O)NC(=O)c1cc([N+](=O)[O-])cnc1C | 171 to 173 °C
74 | CC(C)CN1CN(C)CN(c2c(Cl)cccc2Cl)C1=S | 133 to 135 °C
75 | Clc1ccccc1C1=NN=C(c2ccccc2Cl)C(c2ccccc2)C1 (configuration not stated) | 151 to 153 °C
76 | COc1ccccc1Oc1c(NS(=O)(=O)c2ccc(CC(C)C)cc2)nc(-c2ncccn2)nc1OCCOC(N)=O | 138 to 140 °C

Row | SMILES | melting point
77 | N#Cc1cc(C(F)(F)F)cc(Cl)c1N1CN(Br)C(C(F)(F)F)=CC1=O | 166 to 167 °C
78 | N=C(NCCN1CCC(Nc2nc3ccccc3n2Cc2ccc(F)cc2)CC1)N[N+](=O)[O-] | 147 °C
79 | CC[C@H](NC(=O)c1cc(F)ccc1NS(=O)(=O)c1cccc2cccnc12)c1ccccc1 | 163 °C
80 | O=C(Nc1nccs1)c1nc(-c2ccc(C(F)(F)F)cc2)[nH]c1-c1ccc(F)cc1 | > 250 °C
81 | O=C1CC(/C=C/c2ccccc2)Nc2ccccc2N1Cc1ccccc1 (configuration not stated) | 186 to 187 °C
82 | CC(=O)c1c(O)cccc1OCC(O)COc1c(C)cccc1C (configuration not stated) | 88 to 90 °C
83 | Cc1cc(C)c2nc(CO)n(C)c2n1 | 178 to 179 °C
84 | CCCOC(=O)c1c(C)nsc1NC(=O)NC | 191 °C
85 | O=C(Nc1ccc(NC(=S)NCc2ccccc2)cc1)c1ccc(NC(=S)NCc2ccccc2)cc1 | 207 °C
86 | O=C(NCCc1ccccc1)c1ccccc1-c1ccccc1CNS(=O)(=O)c1cccc(C(F)(F)F)c1 | 145 °C
87 | NS(=O)(=O)c1ccc(NS(=O)(=O)/C=C/c2ccccc2)cc1 | 171 to 173 °C
88 | CNCC(O)c1cn(C(c2ccccc2)(c2ccccc2)c2ccccc2)cn1 (configuration not stated) | 169 to 171 °C
89 | CC(C)(C)[Si](OCCCc1ccc(OCC(=O)O)cc1)(c1ccccc1)c1ccccc1 | 87 to 88 °C
90 | O=S(=O)(c1ccc(Cl)cc1)C(c1ccncc1)c1cc(F)ccc1F (configuration not stated) | 126 to 127 °C
91 | CC(CCCCN(C)c1ccccc1)NCC(O)c1ccc(O)c(C(N)=O)c1 (configuration not stated) | 157 to 160 °C
92 | N#CC1CN1OCc1ccc(Cl)cc1 (configuration not stated) | 45 to 48 °C
93 | Cc1ccnc(Cl)c1C#N | 109 to 110 °C
94 | COc1cc(-c2ncn(-c3cc(OC)c(OC)c(OC)c3)c2-c2ccc(N(C)C)cc2)cc(OC)c1OC | 169 to 171 °C
95 | O=c1c(CCc2ccncc2)cc2cccnc2n1-c1cccc([N+](=O)[O-])c1 | 213 to 214 °C
96 | CC(C)(C)c1cc(O)cc(C(C)(C)C)c1S(=O)c1nnc(-c2ccccn2)o1 (configuration not stated) | 172 to 173 °C
97 | Cc1nc2ccc(S(=O)(=O)c3cccc4cnccc34)cc2nc1C | 198 to 200 °C
